# Data from patent publication US20190216751A1, “Compositions and Methods for the Treatment and Prevention of Cancer” (California State University Northridge, priority 2017, published 2019).
# Key:
# PEAK1 protein = experiment: Western blot PEAK1; type: cell-based, mouse, human; details: GC7 0.1 μM to 100 μM, 48 hours; 4T1, 67NR and MCF10CA1a cells
# Experimental: The inventors sought to determine if the decrease in cell viability is due to the inhibition of post translational modification of eIF5A. To test this, all cell lines were treated with GC7 at 100 μM for 48 hours—which were the time point and concentration at which a decrease in cell viability was seen (FIG. 2B). The inventors then collected, performed a western blot and immunoblotted for hypusine, total eIF5A and β-actin as a loading control (FIG. 3A). […] To test if this effect is dose-dependent, 4T1, 67NR and MCF10CA1a cells were treated with various concentrations of GC7 ranging from 0.1 μM to 100 μM. Protein lysates were then collected after 48 hours of treatment and performed a western blot. […] To validate this in breast cancer cells, the inventors immunoblotted for PEAK1 as well as E-cadherin, hypusine, total eIF5A and β-actin as a loading control (FIG. 3B). […] The inventors next looked at cell viability at lower concentrations of GC7, such as 1 μM and 10 μM, where a decrease in hypusinated eIF5A is still achieved but the decrease in cell viability is not as great in lower concentrations that do still target hypusinated eIF5A (FIG. 3C).
# Cell lines were plated in a 6 well plate at 1e5 cells/mL and left to attach overnight. […] Protein concentrations were determined using Bradford Assay. […] Band intensity graphs were quantified using Fiji software after image thresholding.
# [1] = tested on: eIF5A localization in 4T1 cells; experiment: Immunofluorescence, subcellular localization of total eIF5A; type: cell-based, mouse; details: 10 μM each drug, 48 hours
# Text: The next research questions revolved around asking how TGFβ is regulating eIF5A and what other proteins might be involved to completely block TGFβ-induced EMT. This led to histone deacetylase enzyme 6 (HDAC6). HDAC6 has been previously reported to be responsible for the deacetylation of eIF5A in the nucleus in order to make it readily available for hypusination and later transport out in the cytoplasm for functioning as a translation factor. To determine if it were possible to further increase the efficacy or potency of GC7, the inventors co-treated with Tubastatin A (an HDAC6 inhibitor) in 4T1 and 67NR cells as well as MDA-MB-468 cells which initially were not very sensitive to GC7. Triple negative human breast cancer cell line, BT547, was also used to see if another cell line representative of this breast cancer subtype was sensitive towards DHPS and HDAC6 inhibition. (FIGS. 5A and 5B). Here, are shown cell viability graphs for these four cell lines pretreated with GC7 at 1 μM and after 12 hours were exposed to various concentrations of Tubastatin A (TubA) ranging from 0.1 nM to 100 μM. […] MDA-MB-468 and BT549 cells remained to be insensitive to TubA with or without GC7 pretreatment (FIG. 5A). […]
# eIF5A = details: during GC7 treatment; cited from earlier work
compound,measurement,setting,value
"N=C(N)NCCCCCCCN.O=S(=O)(O)O [GC7, N1-Guanyl-1,7-diaminoheptane]",PEAK1 protein expression,PEAK1 protein,striking down regulation of PEAK1 protein in a dose-dependent manner
same,localization of total eIF5A,[1],predominantly cytoplasmic
same,FOXP3+ regulatory T cells at the site of the tumor,eIF5A,significantly increased
same,pancreatic and splenic CD8+ lymphocytes,eIF5A,did not seem to be affected
same,recruitment of CD4+ T cells at the site of the tumor,eIF5A,significantly decrease
